Reference: patent US20250235543A1, “MODIFIED PROTEINS AND PROTEIN DEGRADERS” (Cullgen (Shanghai), Inc., priority 2021, published 2025)
Like-named read-outs stand apart in the source and are kept apart here.

Legend:
CDK4 = target: T1, CDK4 (Homo sapiens, UniProt P11802); experiment: CDK4 percentage degradation in Calu-1 cells (immunoblotting); assay type: cell-based; conditions: for inhibition at 10 µM: read-out: CDK4 Degradation (10 μM); for inhibition at 0.2 µM: read-out: CDK4 Degradation (200 nM)
T1 construct: endogenous in cells; host or cells: Calu-1
T1 sequence (P11802 2-303 limits assumed): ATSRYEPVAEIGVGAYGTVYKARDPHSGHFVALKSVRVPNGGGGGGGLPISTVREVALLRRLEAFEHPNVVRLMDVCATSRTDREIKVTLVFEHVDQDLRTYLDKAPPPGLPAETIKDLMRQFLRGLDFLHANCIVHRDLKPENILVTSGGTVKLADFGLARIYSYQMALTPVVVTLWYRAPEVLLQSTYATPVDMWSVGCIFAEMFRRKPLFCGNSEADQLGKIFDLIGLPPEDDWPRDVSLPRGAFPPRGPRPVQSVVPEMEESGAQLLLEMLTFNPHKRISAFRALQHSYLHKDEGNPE
T1 sequence (P24385 whole entry partner): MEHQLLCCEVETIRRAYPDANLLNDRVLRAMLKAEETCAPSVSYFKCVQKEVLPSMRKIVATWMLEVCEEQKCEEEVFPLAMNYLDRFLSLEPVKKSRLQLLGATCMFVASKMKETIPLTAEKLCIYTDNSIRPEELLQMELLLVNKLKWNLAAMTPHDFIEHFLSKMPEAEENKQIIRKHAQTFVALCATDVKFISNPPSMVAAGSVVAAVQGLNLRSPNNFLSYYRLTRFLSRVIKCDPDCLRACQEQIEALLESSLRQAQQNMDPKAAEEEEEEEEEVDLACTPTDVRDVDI
T1 sequence (Q16531 2-1140 limits assumed, further chain): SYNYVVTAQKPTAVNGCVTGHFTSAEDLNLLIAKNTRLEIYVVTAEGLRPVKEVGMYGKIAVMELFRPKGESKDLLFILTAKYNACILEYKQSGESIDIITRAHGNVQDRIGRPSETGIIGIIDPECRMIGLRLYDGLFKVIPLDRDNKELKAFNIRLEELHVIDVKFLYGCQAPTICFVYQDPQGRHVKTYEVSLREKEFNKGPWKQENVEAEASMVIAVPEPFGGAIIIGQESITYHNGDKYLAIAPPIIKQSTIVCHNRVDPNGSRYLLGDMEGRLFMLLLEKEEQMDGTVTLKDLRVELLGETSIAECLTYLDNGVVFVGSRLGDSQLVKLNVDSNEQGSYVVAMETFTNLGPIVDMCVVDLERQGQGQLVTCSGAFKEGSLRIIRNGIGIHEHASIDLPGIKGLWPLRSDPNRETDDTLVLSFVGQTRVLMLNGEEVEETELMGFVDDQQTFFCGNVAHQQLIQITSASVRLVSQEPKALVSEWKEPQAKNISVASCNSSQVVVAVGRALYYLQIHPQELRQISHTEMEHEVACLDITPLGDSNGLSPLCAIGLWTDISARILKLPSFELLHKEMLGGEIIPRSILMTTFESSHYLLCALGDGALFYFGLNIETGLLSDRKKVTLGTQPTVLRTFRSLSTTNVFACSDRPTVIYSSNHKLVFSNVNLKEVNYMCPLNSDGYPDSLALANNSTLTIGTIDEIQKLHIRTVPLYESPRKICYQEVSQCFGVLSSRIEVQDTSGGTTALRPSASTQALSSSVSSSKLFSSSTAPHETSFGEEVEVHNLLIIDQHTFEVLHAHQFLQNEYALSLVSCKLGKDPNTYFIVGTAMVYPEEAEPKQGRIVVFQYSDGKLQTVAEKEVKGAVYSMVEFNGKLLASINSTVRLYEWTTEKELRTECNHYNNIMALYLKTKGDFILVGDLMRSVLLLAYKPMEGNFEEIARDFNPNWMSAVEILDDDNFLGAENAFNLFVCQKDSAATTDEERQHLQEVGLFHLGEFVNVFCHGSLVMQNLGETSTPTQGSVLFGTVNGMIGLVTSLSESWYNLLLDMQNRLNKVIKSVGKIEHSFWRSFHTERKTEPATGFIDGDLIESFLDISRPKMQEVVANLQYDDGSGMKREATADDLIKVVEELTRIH
Procedure, shortened: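 Cultured cells were rinsed once in cold PBS and lysed in cold RIPA buffer containing protease and phosphatase inhibitors, with gentle agitation at 4° C. for 30 min. Lysates were centrifuged at 13,000 rpm for 10 min at 4° C., and protein was quantified by BCA. Samples were then separated by SDS-PAGE, detected with ECL, and the CDK4 bands quantified in Image Lab.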

cyclin D1 = experiment: Cyclin D1 percentage degradation in Calu-1 cells (immunoblotting); assay type: cell-based; conditions: 16 hours
Procedure, shortened: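 Cells were rinsed once in cold PBS and lysed in cold RIPA buffer containing protease and phosphatase inhibitors, with gentle agitation at 4° C. for 30 min. Lysates were spun at 13,000 rpm for 10 min at 4° C., protein was measured by BCA, and samples were boiled in Laemmli buffer at 99° C. for 5 min before SDS-PAGE immunoblotting.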

Compound	inhibition at 10 µM (CDK4; Calu-1 cells, 16 hours)	CyclinD1 Degradation (10 μM) (cyclin D1)	inhibition at 0.2 µM (CDK4; Calu-1 cells, 200 nM, 16 hours)	CyclinD1 Degradation (200 nM) (cyclin D1)	inhibition at 0.2 µM (CDK4; Calu-1, 16 h)
Cc1nc(NC(=O)c2ccccc2NC(=O)CCCCCCCNC(=O)CN2CCN(c3ccc(Nc4ncc5cc(C(=O)N(C)C)n(C6CCCC6)c5n4)nc3)CC2)sc1C [CPD-292, 7-Cyclopentyl-2-((5-(4-(2-((8-((2-((4,5-dimethylthiazol-2-yl)carbamoyl)phenyl)amino)-8-oxooctyl)amino)-2-oxoethyl)piperazin-1-yl)pyridin-2-yl)amino)-N,N-dimethyl-7H-pyrrolo[2,3-d]pyrimidine-6-carboxamide]	< 30%	B (protein percentage degradation < 80%, and >= 50%)			
CC(=O)c1c(C)c2cnc(Nc3ccc(N4CCN(CC(=O)NC(C)CCCCNc5cc(Cl)ccc5C(=O)Nc5ccc(C)c(C6CC6)n5)CC4)cn3)nc2n(C2CCCC2)c1=O (centres unmarked) [CPD-379, 2-((5-(2-(4-(6-((6-Acetyl-8-cyclopentyl-5-methyl-7-oxo-7,8-dihydropyrido[2,3-d]pyrimidin-2-yl)amino)pyridin-3-yl)piperazin-1-yl)acetamido)hexyl)amino)-4-chloro-N-(6-cyclopropyl-5-methylpyridin-2-yl)benzamide]			50 to 80%	A (protein percentage degradation >=80%)	
CC(=O)c1c(C)c2cnc(Nc3ccc(N4CCN(C(=O)CCCNc5ccc(C)c(C(=O)Nc6nc(C)c(C)s6)c5)CC4)cn3)nc2n(C2CCCC2)c1=O [CPD-165, 5-((4-(4-(6-((6-Acetyl-8-cyclopentyl-5-methyl-7-oxo-7,8-dihydropyrido[2,3-d]pyrimidin-2-yl)amino)pyridin-3-yl)piperazin-1-yl)-4-oxobutyl)amino)-N-(4,5-dimethylthiazol-2-yl)-2-methylbenzamide]				D (protein percentage degradation <30%)	< 30%
CC(=O)c1c(C)c2cnc(Nc3ccc(N4CCN(C(=O)CCOCCOCCOCCNc5cccc(C(=O)Nc6nc(C)c(C)s6)c5C)CC4)cn3)nc2n(C2CCCC2)c1=O [CPD-122, 3-((2-(2-(2-(3-(4-(6-((6-Acetyl-8-cyclopentyl-5-methyl-7-oxo-7,8-dihydropyrido[2,3-d]pyrimidin-2-yl)amino)pyridin-3-yl)piperazin-1-yl)-3-oxopropoxy)ethoxy)ethoxy)ethyl)amino)-N-(4,5-dimethylthiazol-2-yl)-2-methylbenzamide]				A (protein percentage degradation >=80%)	50 to 80%
CC(=O)c1c(C)c2cnc(Nc3ccc(N4CCN(CCNCCOCCOCCNc5cccc(C(=O)Nc6nc(C)c(C)s6)c5C)CC4)cn3)nc2n(C2CCCC2)c1=O [CPD-086, 3-((2-(2-(2-((2-(4-(6-((6-Acetyl-8-cyclopentyl-5-methyl-7-oxo-7,8-dihydropyrido[2,3-d]pyrimidin-2-yl)amino)pyridin-3-yl)piperazin-1-yl)ethyl)amino)ethoxy)ethoxy)ethyl)amino)-N-(4,5-dimethylthiazol-2-yl)-2-methylbenzamide]				D (protein percentage degradation <30%)	< 30%
CC(=O)c1c(C)c2cnc(Nc3ccc(N4CCN(CCOCCOCCOCCC(=O)Nc5ccccc5C(=O)Nc5nc(C)c(C)s5)CC4)cn3)nc2n(C2CCCC2)c1=O [CPD-178, 2-(3-(2-(2-(2-(4-(6-((6-Acetyl-8-cyclopentyl-5-methyl-7-oxo-7,8-dihydropyrido[2,3-d]pyrimidin-2-yl)amino)pyridin-3-yl)piperazin-1-yl)ethoxy)ethoxy)ethoxy)propanamido)-N-(4,5-dimethylthiazol-2-yl)benzamide]				D (protein percentage degradation <30%)	< 30%
CC(=O)c1c(C)c2cnc(Nc3ccc(N4CCN(CC(=O)NCCOCCC(=O)Nc5ccccc5C(=O)Nc5nc(C)c(C)s5)CC4)cn3)nc2n(C2CCCC2)c1=O [CPD-147, 2-(3-(2-(2-(4-(6-((6-Acetyl-8-cyclopentyl-5-methyl-7-oxo-7,8-dihydropyrido[2,3-d]pyrimidin-2-yl)amino)pyridin-3-yl)piperazin-1-yl)acetamido)ethoxy)propanamido)-N-(4,5-dimethylthiazol-2-yl)benzamide]			< 30%	D (protein percentage degradation <30%)	
CC(=O)c1c(C)c2cnc(Nc3ccc(N4CCN(CC(=O)NCCOCCOCCOCCOCCNC(=O)c5ccc(C(=O)Nc6ncc(C)s6)c(C)c5)CC4)cn3)nc2n(C2CCCC2)c1=O [CPD-012, N^4-(1-(4-(6-((6-Acetyl-8-cyclopentyl-5-methyl-7-oxo-7,8-dihydropyrido[2,3-d]pyrimidin-2-yl)amino)pyridin-3-yl)piperazin-1-yl)-2-oxo-6,9,12,15-tetraoxa-3-azaheptadecan-17-yl)-2-methyl-N^1-(5-methylthiazol-2-yl)terephthalamide]			< 30%	D (protein percentage degradation <30%)	
CC(=O)c1c(C)c2cnc(Nc3ccc(N4CCN(CC(=O)NCCCCCCNc5ccc(C)c(C(=O)Nc6nc(C)c(C)s6)c5)CC4)cn3)nc2n(C2CCCC2)c1=O [CPD-094, 5-((6-(2-(4-(6-((6-Acetyl-8-cyclopentyl-5-methyl-7-oxo-7,8-dihydropyrido[2,3-d]pyrimidin-2-yl)amino)pyridin-3-yl)piperazin-1-yl)acetamido)hexyl)amino)-N-(4,5-dimethylthiazol-2-yl)-2-methylbenzamide]			< 30%	D (protein percentage degradation <30%)	
Cc1nc(NC(=O)c2ccccc2NC(=O)CCCCCCCCNC(=O)CN2CCN(Cc3ccc(Nc4ncc(F)c(-c5cc(F)c6nc(C)n(C(C)C)c6c5)n4)nc3)CC2)sc1C [CPD-279, N-(4,5-Dimethylthiazol-2-yl)-2-(9-(2-(4-((6-((5-fluoro-4-(4-fluoro-1-isopropyl-2-methyl-1H-benzo[d]imidazol-6-yl)pyrimidin-2-yl)amino)pyridin-3-yl)methyl)piperazin-1-yl)acetamido)nonanamido)benzamide]	< 30%	D (protein percentage degradation < 30%)			
Cc1nc(NC(=O)c2ccccc2NC(=O)CCOCCNC(=O)CN2CCN(c3ccc(Nc4ncc(F)c(-c5cc(F)c6nc(C)n(C(C)C)c6c5)n4)nc3)CC2)sc1C [CPD-308, N-(4,5-Dimethylthiazol-2-yl)-2-(3-(2-(2-(4-(6-((5-fluoro-4-(4-fluoro-1-isopropyl-2-methyl-1H-benzo[d]imidazol-6-yl)pyrimidin-2-yl)amino)pyridin-3-yl)piperazin-1-yl)acetamido)ethoxy)propanamido)benzamide]	< 30%	B (protein percentage degradation < 80%, and >= 50%)			
CC(=O)c1c(C)c2cnc(Nc3ccc(N4CCN(CC(=O)NCCOCCOCCC(=O)Nc5cc(N(C)C)ccc5C(=O)Nc5nc(C)c(C)s5)CC4)cn3)nc2n(C2CCCC2)c1=O [CPD-155, 2-(3-(2-(2-(2-(4-(6-((6-Acetyl-8-cyclopentyl-5-methyl-7-oxo-7,8-dihydropyrido[2,3-d]pyrimidin-2-yl)amino)pyridin-3-yl)piperazin-1-yl)acetamido)ethoxy)ethoxy)propanamido)-4-(dimethylamino)-N-(4,5-dimethylthiazol-2-yl)benzamide]			50 to 80%	A (protein percentage degradation >=80%)	
CC(=O)c1c(C)c2cnc(Nc3ccc(N4CCN(CC(=O)NCCOCCOCCOCCOCCOCCNc5ccc(C(=O)Nc6nc(-c7ccccc7)cs6)c(C)c5)CC4)cn3)nc2n(C2CCCC2)c1=O [CPD-007, 4-((1-(4-(6-((6-Acetyl-8-cyclopentyl-5-methyl-7-oxo-7,8-dihydropyrido[2,3-d]pyrimidin-2-yl)amino)pyridin-3-yl)piperazin-1-yl)-2-oxo-6,9,12,15,18-pentaoxa-3-azaicosan-20-yl)amino)-2-methyl-N-(4-phenylthiazol-2-yl)benzamide]			< 30%	D (protein percentage degradation <30%)	
CC(=O)c1c(C)c2cnc(Nc3ccc(N4CCN(C(=O)CCCCCCNc5ccc(C)c(C(=O)Nc6nc(C)c(C)s6)c5)CC4)cn3)nc2n(C2CCCC2)c1=O [CPD-109, 5-((7-(4-(6-((6-Acetyl-8-cyclopentyl-5-methyl-7-oxo-7,8-dihydropyrido[2,3-d]pyrimidin-2-yl)amino)pyridin-3-yl)piperazin-1-yl)-7-oxoheptyl)amino)-N-(4,5-dimethylthiazol-2-yl)-2-methylbenzamide]			< 30%	D (protein percentage degradation <30%)	
CC(=O)c1c(C)c2cnc(Nc3ccc(N4CCN(CC(=O)NCCOCCOCCC(=O)Nc5ccccc5C(=O)Nc5ccc(Cl)cn5)CC4)cn3)nc2n(C2CCCC2)c1=O [CPD-082, 2-(3-(2-(2-(2-(4-(6-((6-Acetyl-8-cyclopentyl-5-methyl-7-oxo-7,8-dihydropyrido[2,3-d]pyrimidin-2-yl)amino)pyridin-3-yl)piperazin-1-yl)acetamido)ethoxy)ethoxy)propanamido)-N-(5-chloropyridin-2-yl)benzamide]			> 80%	A (protein percentage degradation >=80%)	
CC(=O)c1c(C)c2cnc(Nc3ccc(N4CCN(C(=O)CCCC(=O)Nc5ccccc5C(=O)Nc5nc(C)c(C)s5)CC4)cn3)nc2n(C2CCCC2)c1=O [CPD-159, 2-(5-(4-(6-((6-Acetyl-8-cyclopentyl-5-methyl-7-oxo-7,8-dihydropyrido[2,3-d]pyrimidin-2-yl)amino)pyridin-3-yl)piperazin-1-yl)-5-oxopentanamido)-N-(4,5-dimethylthiazol-2-yl)benzamide]				D (protein percentage degradation <30%)	30 to 50%
